Measured values reported in US20110104144A1, “METHODS FOR TREATING CUTANEOUS LUPUS USING AMINOISOINDOLINE COMPOUNDS” (CELGENE CORPORATION, priority 2005, published 2011).

How the values were obtained:
TNF-α = test: Ultraviolet B-induced TNF-alpha production by human keratinocytes (HEKn cells), TNF-α ELISA; assay type: cell-based
Procedure: Cutaneous lupus patients often experience disease exacerbation when exposed to ultraviolet (UV) light. This is thought to be due to UVB-induced TNF-α production by keratinocytes. […] In vitro study for cutaneous lupus was performed to investigate how the compounds of the invention affect TNF-α production in keratinocytes.
Human neonatal foreskin epidermal keratinocytes (HEKn cells) were obtained from Cascade Biologics and were grown in serum-free medium supplemented with growth factors. When cells reached 80% confluency, they were trypsinized and plated at 1×10^5 cells/well in 6 well dishes. Plates were incubated for 24 hours to allow cell adhesion. To optimize conditions for the release of TNF-α, cells were treated with various degrees of exposure to UVB radiation (1, 4 and 24 hours). Supernatants were then collected and tested in the TNF-α ELISA.
Supernatants were collected and tested in the TNF-α ELISA at 1 Hour (bars with no pattern), 4 Hours (lined bars), or 24 Hours (checkered bars) after exposure. Results are the average of two experiments. The results shown in FIG. 7 indicate that supernatants collected 24 hours after HEKn cells were exposed to UVB had the highest levels of TNF-α. After exposure to 10, 50, or 100 mJ/cm^2, cells remained attached to the wells and no cell damage was observed. The 300 mJ/cm^2 UVB exposure was too high for the HEKn cells and many cells were damaged and detached from the bottom of the wells.
Cells were treated for 4 hours with (+)-2-[1-(3-ethoxy-4-methoxyphenyl)-2-methylsulfonylethyl]-4-acetylaminoisoindoline-1,3-dione (compound named 10004), or cyclopropyl {2-[(1S)-1-(3-ethoxy-4-methoxyphenyl)-2-(methylsulfonyl)ethyl]-3-oxoisoindolin-4-yl}carboxamide (compound named 11050) at 0.1 μM, 1 μM, or 10 μM. Medium was aspirated the cells washed and then exposed to 50 mJ/cm^2 UVB radiation. Fresh medium was added and the cells were incubated for 24 hours. Supernatents were removed and tested in the TNF-α ELISA kit from Pierce Biotechnology. […] (FIG. 8). […] (FIG. 8).
In other experiments, cells were treated for 4 hours with 3-(4-amino-1-oxo-1,3-dihydro-isoindol-2-yl)-piperidine-2,6-dione (compound named 5013), (+)-2-[1-(3-ethoxy-4-methoxyphenyl)-2-methylsulfonylethyl]-4-acetylaminoisoindoline-1,3-dione (compound named 10004) or compound named 16057, at 0.1 μM or 1 μM. […] (FIG. 9). […] (FIG. 9).

CD44 = test: HUVEC cell surface expression of CD44 by flow cytometry; assay type: cell-based, Human; settings: 10 μM, FIG. 4
Procedure: (§1) A) Materials. Human Umbilical Vein Endothelial Cells (HUVEC) sent from LifeBank, were tested in Experiments A-K with several adhesion molecules. The adhesion molecules tested were CD51/CD61FITC (obtained from BD PharMingen, San Diego, Calif.; Catalog No. 555505), ICAM-1 PE also known as CD54 (obtained from BD PharMingen, San Diego, Calif.; Catalog No. 555511), ICAM-2 also known as CD102 (obtained from Research Diagnostics Inc., Concord, Mass.; Catalog No. RDI-CBL539FT), VCAM-1 (obtained from BD PharMingen, San Diego, Calif.; Catalog No. 555647), P-Selectin FITC (obtained from R&D Systems, Inc., Minneapolis, Minn.; Catalog No. BBA34), E-Selectin FITC (obtained from R&D Systems, Inc., Minneapolis, Minn.; Catalog No. BBA21), HLA Class I FITC (obtained from BD PharMingen, San Diego, Calif.; Catalog No. 555553), HLA Class II PE (obtained from BD PharMingen, San Diego, Calif.; Catalog No. 555558), CD44 FITC (obtained from BD PharMingen, San Diego, Calif.; Catalog No. 347943), CD144 (Cadherin VE) (obtained from CHEMICON International, Inc., Temecula, Calif.; Catalog No. MAB1989), IgG2a FITC (obtained from BD PharMingen, San Diego, Calif.; Cat #556652), Ms IgG2a (obtained from CHEMICON International, Inc., Temecula, Calif.; Cat. No. PP102), IgG1 FITC (obtained from BD PharMingen, San Diego, Calif.; Cat. No. 349041) and IgG1 PE (obtained from BD PharMingen, San Diego, Calif.; Cat. No. 349043).
(§2) Compound (1) ((+)-2-[1-(3-ethoxy-4-methoxyphenyl)-2-methylsulfonylethyl]-4-acetylaminoisoindoline-1,3-dione) and Compound (2) (4-(amino)-2-(2,6-dioxo(3-piperidyl))-isoindoline-1,3-dione) were obtained according to the preparation procedures disclosed herein. 16,16-Dimethyl-PGE2 (hereinafter PGE2) was obtained from BIOMOL International, L.P. (Plymouth Meeting, Pa.; Catalog No. PG-021). TNF-αwas obtained from Pierce Biotechnology (Rockford, Ill.; Catalog No. RTNFA 10).
(§3) B) Methods. […]

E-Selectin [1] = test: HUVEC cell surface expression of E-Selectin by flow cytometry; assay type: cell-based, Human; settings: 10 μM; for E-Selectin cell surface expression: unstimulated, FIG. 2
Procedure: as §1, §2
(§4) B) Methods. HUVEC's were plated on 6-well plates at a concentration of 1×10^5 cells/well in 3 ml EBM® endothelial basal media (obtained from Cambrex Corporation, East Rutherford, N.J.; Catalog No. CC-3121) and singlequots (obtained from Cambrex Corporation, East Rutherford, N.J.; Catalog No. CC-4133). The cells were incubated overnight in a 37° C. and 5% CO2 humidified incubator to allow cells to attach. The old media was removed in next day and replaced with 3 ml fresh EBM® endothelial basal media. Then, samples of 3 μl of 10 mM of Compound (1), Compound (2), PGE2 and a mixture of Compound (1) and PGE2 were added separately to each well of the plates in duplicate to give a final concentration of 10 μM. An unstimulated DMSO control and a TNF-α-stimulated control were also added in duplicate. The plates were incubated in a 37° C. and 5% CO2 humidified incubator for 1 hr. […] The plates were incubated overnight in a 37° C. and 5% CO2 humidified incubator. The cells were also tested without TNF-α. The media was removed in the next day and each well was washed with 3 ml of phosphate buffered saline (PBS). Then, 3 ml of PBS containing 1 mM of EDTA (ethylenediaminetetraacetate) was added to each well to allow the cells to detach. Once the cells detached, they were gently scraped and placed in 4.5 ml Falcon tubes. The tubes were then centrifuged at 1200 RPM for 8 minutes at 4° C. The supernatant was carefully removed. Next, 50 μl of PBS-FACS buffer (5% fetal bovine serum (FBS), 0.02% sodium azide in PBS) and 20 μl of antibodies were added to all tubes as follows:
(§5) After the antibodies were added, the tubes were incubated on ice for 30 minutes and covered with foil. Then, the tubes were centrifuged at 1200 RPM for 8 minutes at 4° C. The supernatant was carefully removed. The cells were re-suspended in 2 ml of PBS-FACS buffer and centrifuged again as above. The supernatant was carefully removed again and the cells were re-suspended in 500 μl of PBS-FACS buffer. The tubes were then analyzed using a flow cytometer. […]

VCAM = test: HUVEC cell surface expression of VCAM by flow cytometry; assay type: cell-based, Human; settings: TNF-α stimulated, 10 μM, FIG. 5
Procedure: (§6) A) Materials. Human Umbilical Vein Endothelial Cells (HUVEC) sent from LifeBank, were tested in Experiments A-K with several adhesion molecules. […]

VE-Cadherin = test: HUVEC cell surface expression of VE-Cadherin (CD144) by flow cytometry; assay type: cell-based, Human; settings: 10 μM, FIG. 4
Procedure: as §1, §2, §3

CD51/61 = test: HUVEC cell surface expression of CD51/61 by flow cytometry; assay type: cell-based, Human; settings: unstimulated, 10 μM, FIG. 1
Procedure: as §1, §2, §3

P-Selectin = test: HUVEC cell surface expression of P-Selectin by flow cytometry; assay type: cell-based, Human; settings: 10 μM; for increase of TNF-α-induced cell expression of P-Selectin above baseline: TNF-α (1 ng/ml) stimulated, FIG. 3; for inhibition of P-Selectin expression: unstimulated, FIG. 2
Procedure: as §1, §2, §4, §5

ICAM-1 = test: HUVEC cell surface expression of ICAM-1 by flow cytometry; assay type: cell-based, Human; settings: TNF-α stimulated, 10 μM, FIG. 5
Procedure: as §6

E-Selectin [2] = test: E-Selectin cell surface expression in HUVEC detected by ELISA; assay type: cell-based, Human; settings: HUVEC, 0.25, 0.5 and 1 ng/ml of TNF-α, 10 μM, FIG. 6
From the text: In this assay, the mixture of Compound (1) and PGE2 appeared to work synergistically.

[3] = TNF-α (1 ng/ml) stimulated, FIG. 3
[4] = HEKn cells treated 4 hours at 0.1 μM, 1 μM, or 10 μM, 50 mJ/cm^2 UVB, 24 hours, FIG. 8

| SMILES | inhibition of TNF-α-induced E-Selectin expression (E-Selectin [1]; [3]) | TNF-α-stimulated cell surface expression of VE-Cadherin (VE-Cadherin) | increase of TNF-α-induced cell expression of P-Selectin above baseline (P-Selectin) | inhibition of P-Selectin expression (P-Selectin) | inhibition of TNF-α-stimulated cell surface expression of CD44 (CD44) | E-Selectin cell surface expression (E-Selectin [1]) | levels of TNF-α released after UVB exposure (TNF-α; [4]) | CD51/61 cell surface expression compared to untreated conditions (CD51/61) | other results |
| --- | --- | --- | --- | --- | --- | --- | --- | --- | --- |
| Nc1cccc2c1CN(C1CCC(=O)NC1=O)C2=O (stereo not drawn) [Compound 5013, 3-(4-amino-1-oxo-1,3-dihydro-isoindol-2-yl)-piperidine-2,6-dione] |  |  |  |  |  |  |  |  | TNF-α levels after UVB exposure with the 0.1 μM treatment (TNF-α; HEKn cells treated 4 hours at 0.1 μM, UVB, FIG. 9): TNF-α levels lower than cells not treated with radiation |
| CCCCC(C)(C)[C@H](O)/C=C/[C@H]1[C@H](O)CC(=O)[C@@H]1C/C=C\CCCC(=O)O [PGE2, 16,16-Dimethyl-PGE2, reference compound] | 50% | unaffected |  |  |  |  |  |  | TNF-α-stimulated cell surface expression of CD44 (CD44): no detectable effects; cell surface expression of E-Selectin (E-Selectin [1]; TNF-α stimulated, FIG. 5): significantly decreased; cell surface expression of VCAM (VCAM): significantly decreased; reduction in the CD51/61 cell surface expression (CD51/61): 20% |
| CCOc1cc(C(CS(C)(=O)=O)N2C(=O)c3cccc(NC(C)=O)c3C2=O)ccc1OC (single isomer, unassigned; (+)) [Compound (1), (+)-2-[1-(3-ethoxy-4-methoxyphenyl)-2-methylsulfonylethyl]-4-acetylaminoisoindoline-1,3-dione] |  | unaffected | 40% | approximately 55% | approximately 30% | inhibited | dose dependent decrease | unaffected | increase of P-Selectin cell surface expression (P-Selectin; TNF-α stimulated, FIG. 5): approximately 35%; TNF-α-stimulated cell surface expression of E-Selectin (E-Selectin [1]; [3]): unaffected; levels of TNF-α released after UVB exposure (TNF-α; HEKn cells treated 4 hours at 0.1 μM or 1 μM, UVB, FIG. 9): dose dependent decrease; TNF-α levels after UVB exposure with the 10 μM treatment (TNF-α; HEKn cells treated 4 hours at 10 μM, 50 mJ/cm^2 UVB, 24 hours, FIG. 8): TNF-α levels similar to cells not treated with radiation; decrease of VCAM expression (VCAM): 30%; increase of ICAM-1 cell surface expression (ICAM-1): approximately 35% |
| Nc1cccc2c1C(=O)N(C1CCC(=O)NC1=O)C2=O (stereo not drawn) [Compound (2), 4-(amino)-2-(2,6-dioxo(3-piperidyl))-isoindoline-1,3-dione] | approximately 20% | unaffected | > 2 fold | ~35% | approximately 30% | inhibited |  | unaffected | increase of P-Selectin expression (P-Selectin; TNF-α stimulated, FIG. 5): ~2 fold; TNF-α-stimulated E-Selectin cell surface expression (ELISA) (E-Selectin [2]): inhibitory effect |
| CCOc1cc([C@@H](CS(C)(=O)=O)N2Cc3cccc(NC(=O)C4CC4)c3C2=O)ccc1OC [Compound 11050, cyclopropyl {2-[(1S)-1-(3-ethoxy-4-methoxyphenyl)-2-(methylsulfonyl)ethyl]-3-oxoisoindolin-4-yl}carboxamide] |  |  |  |  |  |  | dose dependent decrease |  |  |
